According to patent US4727076A, “Tetrahydroquinolinylalkyl amino pyridones and ring homologues thereof, useful as histamine-H1 -receptor antagonists” (Smith Kline & French Laboratories Ltd., priority 1986, dated 1988):

test system: histamine H1-receptor; experiment: inhibition of histamine induced bronchoconstriction in vivo; design: species or system guinea pig; details: anaesthetised guinea pigs, intravenous injection, histamine dose-response curve 5 minutes later
Method: Guinea pigs of either sex are anaesthetised by intraperitoneal injection of sodium pentobarbitone, 90 mg/kg. The trachea is cannulated. The animal is respired artificially with a fixed volume of air just adequate to inflate the lungs. The pressure needed to inflate the lungs is monitored from the respiratory system using a low pressure transducer. Intravenous injection of histamine causes dose-dependent increases in the pressure to inflate the lungs reflecting the bronchoconstrictor action of histamine. Responses to histamine can be antagonised using histamine H1 -receptor antagonists.
Dose-response curves to histamine are established at 20, 40, 80, 160 and 320 nmols/kg. Antagonists are then administered by intravenous injection and 5 minutes later a new histamine dose-response curve is established increasing the doses of histamine as necessary. The effect of the antagonist can be quantified by the displacement, to the right, of the histamine dose-response curve, expressed as a dose-ratio. A series of doses of antagonists may be given to each animal allowing calculation of dose-ratios for each dose of antagonist. For the compounds of Examples 1, 2 and 4, the doses (μmol/kg) required to give a dose ratio of 11 ((DR-1)=10) are 0.022, 0.06 and 0.0048 respectively.

Going from O=c1nc(NCCCC2CCCc3cccnc32)[nH]cc1Cc1ccc(CO)nc1 (stereo not drawn) [Example 4, 2-[3-(5,6,7,8-Tetrahydroquinol-8-yl)propylamino]-5-(6-hydroxymethylpyrid-3-ylmethyl)-4(1H)-pyrimidone] to Cc1ccc(Cc2c[nH]c(NCCCC3CCCc4cccnc43)nc2=O)cn1 (stereo not drawn) [Example 2, 2-[3-(5,6,7,8-Tetrahydroquinol-8-yl)propylamino]-5-(6-methylpyrid-3-ylmethyl)-4(1H)-pyrimidone], the “dose required to give a dose ratio of 11 ((DR-1)=10)” value rises from 0.0048 µmol/kg to 0.06 µmol/kg.

With O=c1nc(NCCCC2CCCc3cccnc32)[nH]cc1Cc1cc[n+]([O-])cc1 (stereo not drawn) [Example 1, 2-[3-(5,6,7,8-Tetrahydroquinol-8-yl)propylamino]-5-[1-oxopyrid-4-ylmethyl]-4(1H)-pyrimidone] the “dose required to give a dose ratio of 11 ((DR-1)=10)” value was 0.022 µmol/kg.
